{
  "source": "patent US20250387324A1",
  "about": "“IN SITU FORMING IMPLANTS AND MICROPARTICLES FOR INTRAARTICULAR DRUG DELIVERY” (Mississippi State University, priority 2024, published 2025)",
  "key": {"[1]": {"system": "IL-1β production by human THP-1 macrophages", "assay": "LPS-stimulated IL-1β production by THP-1 macrophages (ELISA)", "type": "cell-based", "from_the_text": "(§1) In addition to the inhibition of released collagenases, PCG is capable of suppressing the biosynthesis of inflammatory mediators that play important roles in the pathogenesis of OA. Such chondroprotective properties were investigated using THP-1 monocytes that had been differentiated into macrophages. THP-1 is a human leukemia monocytic cell line. THP-1 monocytes were expanded by suspension culture in RPMI 1640 medium supplemented with 10% FBS and 1% antibiotic-antimycotic solution. They were differentiated into macrophages by adding PMA to a final concentration of 20 nM and transferring them to monolayer culture for 72 h.^13 Inflammation was then induced by treatment with 1 μg/ml LPS. PCG was first dissolved at 5 mM in complete culture medium. One hour after LPS stimulation, cells were treated with PCG at final concentrations of 4, 20, 100, and 500 μM. Culture supernatant was collected 24 h later and IL-1β quantified using ELISA, with results expressed as a percentage of the unstimulated control."}, "[2]": {"system": "prostaglandin E2 (PGE2) production by human THP-1 macrophages", "assay": "LPS-stimulated PGE2 production by THP-1 macrophages (LC-MS/MS)", "type": "cell-based", "from_the_text": "as §1\nIn addition to IL-1β, prostaglandin E2 (PGE2) in the culture supernatants was quantified using mass spectrometry. […] The residues were then reconstituted in 100 μL of methanol and analyzed by liquid chromatography with tandem mass spectrometry (LC-MS/MS), as previously described.^13"}, "type 2 collagenase": {"system": "type 2 collagenase", "assay": "Inhibition of collagenase-mediated cartilage degradation (pig cartilage disks, residual mass)", "type": "biochemical", "method": "The stability of PCG within a PLGA implant was examined by determining the ability of released PCG to inhibit collagenase-mediated cartilage degradation. Pig stifle (knee) joints were obtained from a local meat processor and full-thickness, cylindrical disks of articular cartilage (5 mm diameter) were harvested from the distal femurs. The disks were freeze-dried, weighed, and placed in Dulbecco's Modified Eagle Medium (DMEM) containing 0.0025% type 2 collagenase with and without 100 μM PCG (n=12 disks per group). Samples were incubated at 37° C. under gentle orbital shaking. At 3, 6, 9, and 12 days of incubation, three disks from each group were rinsed in distilled water, freeze-dried and weighed again, while the rest were allowed to continue incubation after adding fresh collagenase. The same experiment was repeated using implants made with 20% PLGA (50:50), NMP/BB 90/10, and 0 or 32 mg PCG per gram total implant weight (n=12 per group). Implants were formed in microcentrifuge tubes by pipetting 100 μl of the solution into distilled water. One hour later the water was replaced by the collagenase solution. Custom 3D-printed baskets were used to suspend the cartilage disks in the collagenase just above the implants. Disks were collected and weighed at the same 3-day intervals, with replacement of the collagenase solution each time. PCG concentration in the spent collagenase solution was determined by measuring absorbance at 373 nm and comparing to a standard curve generated from serial dilutions of PCG dissolved directly into DMEM. For both experiments, data are reported as residual mass of cartilage (final weight/initial weight). The overall effect of PCG was analyzed by two-way ANOVA with treatment and time as factors. Statistically significant effects of PCG at each time point were determined by independent t-test (equal variances not assumed)."}, "[3]": {"assay": "Solvent screening for dissolving PCG", "type": "physicochemical", "method": "The present inventor has developed a suitable in situ forming implant for sustained delivery of PCG. Polycarbonate, poly(lactic acid), and poly(lactide-co-glycolide) (PLGA) were dissolved in various solvents and screened for combinations that could also dissolve punicalagin and release it gradually from an implant formed in situ. PLGA emerged as the polymer that offered the best opportunity for the tuning of PCG release kinetics. Systems composed of PLGA and PCG dissolved in N-methyl-2-pyrrolidone (NMP) and/or benzyl alcohol (BA) consistently formed solid or hydrogel implants. […] Thus, one aspect of this invention is the characterization of PLGA in situ forming implants (originating from solutions containing NMP, BA, and BB) with respect to PCG stability and release kinetics."}, "[4]": {"system": "adjuvant-induced arthritis", "details": "daily intraperitoneal doses, 50 mg/kg; cited from earlier work"}, "[5]": {"system": "monoiodoacetate-induced model of OA", "details": "cited from earlier work"}, "[6]": {"details": "6% w/w PCG-containing diet for 37 days; cited from earlier work"}, "fibroblast synoviocytes": {"system": "fibroblast synoviocytes", "details": "cited from earlier work"}, "[7]": {"system": "murine monocyte/macrophage-like cells", "details": "dose-dependent; cited from earlier work"}, "[8]": {"system": "RAW264.7 murine macrophages", "details": "cited from earlier work"}, "collagen type II": {"biological_target": "collagen type II (Homo sapiens, UniProt P02458)", "sequence (P02458 182-1241 limits assumed)": "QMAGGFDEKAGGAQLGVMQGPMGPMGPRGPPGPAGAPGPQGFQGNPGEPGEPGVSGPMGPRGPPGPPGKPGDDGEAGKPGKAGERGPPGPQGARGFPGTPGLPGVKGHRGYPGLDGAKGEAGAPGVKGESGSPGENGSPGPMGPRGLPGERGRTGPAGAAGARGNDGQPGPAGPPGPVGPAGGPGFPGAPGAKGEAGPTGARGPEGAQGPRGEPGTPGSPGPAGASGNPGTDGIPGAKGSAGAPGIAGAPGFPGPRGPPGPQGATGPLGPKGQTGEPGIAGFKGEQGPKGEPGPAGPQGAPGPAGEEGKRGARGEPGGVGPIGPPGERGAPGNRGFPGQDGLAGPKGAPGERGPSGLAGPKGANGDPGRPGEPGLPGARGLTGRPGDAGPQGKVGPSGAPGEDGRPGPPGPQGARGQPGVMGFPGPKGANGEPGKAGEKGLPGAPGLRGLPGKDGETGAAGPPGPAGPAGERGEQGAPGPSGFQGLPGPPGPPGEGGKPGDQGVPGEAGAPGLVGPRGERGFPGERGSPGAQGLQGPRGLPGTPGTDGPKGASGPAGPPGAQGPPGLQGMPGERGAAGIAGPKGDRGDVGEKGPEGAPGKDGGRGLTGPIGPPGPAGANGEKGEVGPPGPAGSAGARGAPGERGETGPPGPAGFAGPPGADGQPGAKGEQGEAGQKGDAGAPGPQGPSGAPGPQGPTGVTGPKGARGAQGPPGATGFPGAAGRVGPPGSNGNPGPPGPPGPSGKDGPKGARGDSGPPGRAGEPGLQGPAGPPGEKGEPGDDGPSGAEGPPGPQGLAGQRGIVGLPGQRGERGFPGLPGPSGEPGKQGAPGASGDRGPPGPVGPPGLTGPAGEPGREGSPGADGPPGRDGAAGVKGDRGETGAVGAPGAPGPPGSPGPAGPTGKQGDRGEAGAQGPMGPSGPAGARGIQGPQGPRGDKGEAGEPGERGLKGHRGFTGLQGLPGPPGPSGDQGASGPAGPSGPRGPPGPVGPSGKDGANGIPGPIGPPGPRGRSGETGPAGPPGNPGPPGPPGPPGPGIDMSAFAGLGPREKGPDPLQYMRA", "details": "non-covalent; cited from earlier work"}, "collagenase": {"system": "collagenase", "details": "in vitro; cited from earlier work"}},
  "data": [
    {"smiles": "O=C1O[C@H]2[C@@H]3OC(=O)c4cc(O)c(O)c(O)c4-c4c(O)c(O)c5oc(=O)c6c(c(O)c(O)c7oc(=O)c4c5c76)-c4c(cc(O)c(O)c4O)C(=O)OC[C@H]3OC(O)[C@@H]2OC(=O)c2cc(O)c(O)c(O)c2-c2c1cc(O)c(O)c2O", "note": "(mixture of isomers) [PCG, punicalagin]", "values": [
      {"measurement": "LPS-stimulated IL-1β production", "setting": "[1]; PCG 4 μM, added 1 h after 1 μg/ml LPS, supernatant at 24 h", "result": "return to the unstimulated control level"},
      {"measurement": "LPS-stimulated IL-1β production", "setting": "[1]; PCG 20 μM and above", "result": "suppression of practically all IL-1β synthesis"},
      {"measurement": "attenuation of LPS-stimulated production of PGE2", "setting": "[2]; PCG 500 μM", "result": "approximately 85%"},
      {"measurement": "decrease in PGE2 production", "setting": "[2]; PCG in the range of 4-100 μM", "result": "about 35%"},
      {"measurement": "cartilage mass loss", "setting": "type 2 collagenase; 100 μM PCG added directly, 12 days, 0.0025% type 2 collagenase", "result": "about 55%"},
      {"measurement": "collagenase-mediated degradation of cartilage", "setting": "type 2 collagenase; added directly to collagenase solution or released from an ISI", "result": "significantly inhibited"},
      {"measurement": "stability of PCG within PLGA ISI", "setting": "type 2 collagenase; judged by collagenase inhibition of released PCG", "result": "at least 12 days"},
      {"measurement": "solubility of PCG in benzyl benzoate (BB)", "setting": "[3]", "result": "did not dissolve"},
      {"measurement": "paw edema", "setting": "[4]", "result": "significantly reduced paw edema"},
      {"measurement": "systemic toxicity (histology of major organs)", "setting": "[5]; intraarticular PCG study", "result": "no evidence of systemic toxicity"},
      {"measurement": "erosion of cartilage compared to saline control", "setting": "[5]; semi-weekly intraarticular injections, 9.2 mM PCG solution", "result": "less overall erosion of cartilage"},
      {"measurement": "systemic toxicity", "setting": "[6]", "result": "no systemic toxicity"},
      {"measurement": "TNF-α induced expression of IL-1β", "setting": "fibroblast synoviocytes", "result": "reduce"},
      {"measurement": "TNF-α induced expression of IL-6", "setting": "fibroblast synoviocytes", "result": "reduce"},
      {"measurement": "TNF-α induced expression of MMP-13", "setting": "fibroblast synoviocytes", "result": "reduce"},
      {"measurement": "lipopolysaccharide-stimulated production of IL-6", "setting": "[7]", "result": "suppressed"},
      {"measurement": "lipopolysaccharide-stimulated production of nitric oxide (NO)", "setting": "[7]", "result": "suppressed"},
      {"measurement": "lipopolysaccharide-stimulated production of prostaglandin E2 (PGE2)", "setting": "[7]", "result": "suppressed"},
      {"measurement": "LPS-induced production of IL-1β", "setting": "[8]", "result": "attenuated"},
      {"measurement": "LPS-induced production of PGE2", "setting": "[8]", "result": "attenuated"},
      {"measurement": "binding to collagen type II", "setting": "collagen type II", "result": "high affinity"},
      {"measurement": "collagenase enzymatic activity", "setting": "collagenase", "result": "inhibit its enzymatic activity"}
    ]}
  ]
}
